Data taken from PubChem BioAssay (NCI).
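Compound exposure: 48 hours, 5 concentrations, 96-well plates. The concentration for 50% growth inhibition is given as GI50. At the TGI there is no net growth.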

Experiments:
Assay in all cases: DTP human tumour cell line panel, 48 h
HOP-92 NSCLC = system: HOP-92 NSCLC
ACHN renal = system: ACHN renal
786-0 renal = system: 786-0 renal
RXF 393 renal = system: RXF 393 renal
HCT-116 colon = system: HCT-116 colon
SK-MEL-5 melanoma = system: SK-MEL-5 melanoma
SF-268 CNS = system: SF-268 CNS
PC-3 prostate = system: PC-3 prostate
MALME-3M melanoma = system: MALME-3M melanoma
MCF7 breast = system: MCF7 breast
HS 578T breast = system: HS 578T breast
HL-60(TB) leukemia = system: HL-60(TB) leukemia
HCC-2998 colon = system: HCC-2998 colon
OVCAR-3 ovarian = system: OVCAR-3 ovarian
SK-MEL-28 melanoma = system: SK-MEL-28 melanoma
NCI-H23 lung = system: NCI-H23 lung
LOX IMVI melanoma = system: LOX IMVI melanoma
NCI-H226 lung = system: NCI-H226 lung
CCRF-CEM leukemia = system: CCRF-CEM leukemia
MOLT-4 leukemia = system: MOLT-4 leukemia
COLO 205 colon = system: COLO 205 colon
NCI-H460 lung = system: NCI-H460 lung
MDA-MB-435 = system: MDA-MB-435
TK-10 renal = system: TK-10 renal
OVCAR-5 ovarian = system: OVCAR-5 ovarian
DU-145 prostate = system: DU-145 prostate
SNB-75 CNS = system: SNB-75 CNS
SF-295 CNS = system: SF-295 CNS
SK-OV-3 ovarian = system: SK-OV-3 ovarian
SF-539 CNS = system: SF-539 CNS
RPMI-8226 leukemia = system: RPMI-8226 leukemia
HOP-62 NSCLC = system: HOP-62 NSCLC
U251 CNS = system: U251 CNS
OVCAR-8 ovarian = system: OVCAR-8 ovarian
OVCAR-4 ovarian = system: OVCAR-4 ovarian
EKVX NSCLC = system: EKVX NSCLC
A549 NSCLC = system: A549 NSCLC
NCI-H522 lung = system: NCI-H522 lung
BT-549 breast = system: BT-549 breast
NCI/ADR-RES ovarian = system: NCI/ADR-RES ovarian
KM12 colon = system: KM12 colon
UACC-62 melanoma = system: UACC-62 melanoma
M14 melanoma = system: M14 melanoma
IGROV1 ovarian = system: IGROV1 ovarian
T-47D breast = system: T-47D breast
SK-MEL-2 melanoma = system: SK-MEL-2 melanoma
A498 renal = system: A498 renal
K-562 leukemia = system: K-562 leukemia
SW-620 colon = system: SW-620 colon
HCT-15 colon = system: HCT-15 colon
HT29 colon = system: HT29 colon
UACC-257 melanoma = system: UACC-257 melanoma
SNB-19 CNS = system: SNB-19 CNS
UO-31 renal = system: UO-31 renal
SR leukemia = system: SR leukemia
MDA-MB-231 breast = system: MDA-MB-231 breast

CCN(CC)c1ccc2c(c1)Oc1nc(N)c(C#N)c(N)c1C2Sc1ccc(SC)cc1 (configuration not stated)
GI50 (HOP-92 NSCLC): 1720 nM
TGI (HOP-92 NSCLC): 3.43 µM
GI50 (ACHN renal): 1680 nM
TGI (ACHN renal): 3.04 µM
GI50 (786-0 renal): 1750 nM
TGI (786-0 renal): 3.19 µM
GI50 (RXF 393 renal): 1660 nM
TGI (RXF 393 renal): 3.31 µM
GI50 (HCT-116 colon): 1460 nM
TGI (HCT-116 colon): 2810 nM
GI50 (SK-MEL-5 melanoma): 1650 nM
TGI (SK-MEL-5 melanoma): 3.01 µM
GI50 (SF-268 CNS): 1690 nM
TGI (SF-268 CNS): 3.44 µM
GI50 (PC-3 prostate): 1410 nM
TGI (PC-3 prostate): 2810 nM
GI50 (MALME-3M melanoma): 2380 nM
TGI (MALME-3M melanoma): 4.72 µM
GI50 (MCF7 breast): 1600 nM
TGI (MCF7 breast): 3.65 µM
GI50 (HS 578T breast): 2150 nM
TGI (HS 578T breast): 7.1 µM
GI50 (HL-60(TB) leukemia): 1970 nM
TGI (HL-60(TB) leukemia): 5.15 µM
GI50 (HCC-2998 colon): 1960 nM
TGI (HCC-2998 colon): 3.47 µM
GI50 (OVCAR-3 ovarian): 1730 nM
TGI (OVCAR-3 ovarian): 3.17 µM
GI50 (SK-MEL-28 melanoma): 2050 nM
TGI (SK-MEL-28 melanoma): 3.91 µM
GI50 (NCI-H23 lung): 1580 nM
TGI (NCI-H23 lung): 3.16 µM
GI50 (LOX IMVI melanoma): 1390 nM
TGI (LOX IMVI melanoma): 2750 nM
GI50 (NCI-H226 lung): 1530 nM
TGI (NCI-H226 lung): 2890 nM
GI50 (CCRF-CEM leukemia): 1270 nM
TGI (CCRF-CEM leukemia): 5.02 µM
GI50 (MOLT-4 leukemia): 1330 nM
TGI (MOLT-4 leukemia): 4.6 µM
GI50 (COLO 205 colon): 1840 nM
TGI (COLO 205 colon): 3.55 µM
GI50 (NCI-H460 lung): 1800 nM
TGI (NCI-H460 lung): 3.69 µM
GI50 (MDA-MB-435): 1860 nM
TGI (MDA-MB-435): 3.58 µM
GI50 (TK-10 renal): 2590 nM
TGI (TK-10 renal): 4.1 µM
GI50 (OVCAR-5 ovarian): 2370 nM
TGI (OVCAR-5 ovarian): 4.75 µM
GI50 (DU-145 prostate): 1820 nM
TGI (DU-145 prostate): 3.21 µM
GI50 (SNB-75 CNS): 1560 nM
TGI (SNB-75 CNS): 3.17 µM
GI50 (SF-295 CNS): 1670 nM
TGI (SF-295 CNS): 3.12 µM
GI50 (SK-OV-3 ovarian): 2160 nM
TGI (SK-OV-3 ovarian): 3.96 µM
GI50 (SF-539 CNS): 1640 nM
TGI (SF-539 CNS): 3 µM
GI50 (RPMI-8226 leukemia): 2500 nM
TGI (RPMI-8226 leukemia): 6.56 µM
GI50 (HOP-62 NSCLC): 1760 nM
TGI (HOP-62 NSCLC): 3.26 µM
GI50 (U251 CNS): 1350 nM
TGI (U251 CNS): 2700 nM
GI50 (OVCAR-8 ovarian): 2080 nM
TGI (OVCAR-8 ovarian): 4.43 µM
GI50 (OVCAR-4 ovarian): 1750 nM
TGI (OVCAR-4 ovarian): 3.4 µM
GI50 (EKVX NSCLC): 528 nM
TGI (EKVX NSCLC): 1970 nM
GI50 (A549 NSCLC): 1940 nM
TGI (A549 NSCLC): 3.5 µM
GI50 (NCI-H522 lung): 2420 nM
TGI (NCI-H522 lung): 4.31 µM
GI50 (BT-549 breast): 1420 nM
TGI (BT-549 breast): 2780 nM
GI50 (NCI/ADR-RES ovarian): 2390 nM
TGI (NCI/ADR-RES ovarian): 6.13 µM
GI50 (KM12 colon): 1660 nM
TGI (KM12 colon): 3.46 µM
GI50 (UACC-62 melanoma): 1480 nM
TGI (UACC-62 melanoma): 2960 nM
GI50 (M14 melanoma): 1740 nM
TGI (M14 melanoma): 3.47 µM
GI50 (IGROV1 ovarian): 1570 nM
TGI (IGROV1 ovarian): 3.37 µM
GI50 (T-47D breast): 1740 nM
TGI (T-47D breast): 3.94 µM
GI50 (SK-MEL-2 melanoma): 2480 nM
TGI (SK-MEL-2 melanoma): 5.51 µM
GI50 (A498 renal): 1880 nM
TGI (A498 renal): 3.44 µM
GI50 (K-562 leukemia): 2330 nM
TGI (K-562 leukemia): 5.69 µM
GI50 (SW-620 colon): 1880 nM
TGI (SW-620 colon): 3.68 µM
GI50 (HCT-15 colon): 1590 nM
TGI (HCT-15 colon): 3.07 µM
GI50 (HT29 colon): 2330 nM
TGI (HT29 colon): 4.61 µM
GI50 (UACC-257 melanoma): 3.23 µM
TGI (UACC-257 melanoma): 6.22 µM
GI50 (SNB-19 CNS): 1520 nM
TGI (SNB-19 CNS): 2900 nM
GI50 (UO-31 renal): 1510 nM
TGI (UO-31 renal): 2840 nM
GI50 (SR leukemia): 436 nM
TGI (SR leukemia): 3.87 µM
GI50 (MDA-MB-231 breast): 1540 nM
TGI (MDA-MB-231 breast): 3.07 µM
